Data: patent publication US9162979B2, “1,5-Diary1-2-alkylpyrrole-3-substituted nitro esters, selective COX-2 inhibitors and nitric oxide donors” (ROTTAPHARM BIOTECH S.R.L., priority 2010, dated 2015)

Experiments:
[1] = system: carrageenan-induced inflammatory state in the rat; assay: Carrageenan test: nociceptive threshold (weight supported); assay type: in vivo; conditions: for Weight supported (g) Before treatment: baseline before treatment
Procedure: (§1) Male Swiss albino mice (23-25 g) and Wistar rats (150-200 g) were used.
The nociceptive threshold in the rat was determined with an analgesiometer, as described by Leighton et al. (Br. J. Pharmacol., 1988, 93, 553-560), the pressure was measured before the treatment and after 30 and 60 min. To reproduce the inflammatory state in the rat, carrageenan was administered i.p. (0.1 ml, 1%) 4 h before the test.
(§2) The test was performed using 6 animals per group, all the compounds were administered per os, 30 min before the test. The carrageenan is administered 2 h before the test.

[2] = system: rat paw oedema induced by carrageenan; assay: Volume of oedema test (carrageenan); assay type: in vivo
Procedure: The rat paw volumes were measured using a pletismometer. Four hours after injecting carrageenan 1.0% (0.1 ml injection), the volume of the right hind-paw was measured and compared with that of controls treated with a saline/carrageenan solution. The rats were administered the test compounds 3.5 hours after the carrageenan. The results are given as paw volume expressed in ml. The results relating to the analgesic and anti-oedemic activity in the carrageenan test for some representative compounds of the invention are shown in Table 11.
as §2

[3] = system: isolated rings of thoracic aorta; assay: Evaluation of release of NO: vasorelaxing activity on endothelium-denuded aortic rings contracted with KCl; design: species or system rat; key to NO release properties Emax (maximum vasorelaxing effect) / NO release properties pIC50 (vasorelaxing potency): S.E: Scarcely Effective: it is not possible to detect NO release comparable to the other compounds mentioned here; conditions: for IC50 / Emax: Rattus norvegicus; for IC50: concentration reducing contractile tone induced by 20 mM KCl by half, read-out: NO release properties pIC50 (vasorelaxing potency) (converted); for Emax: read-out: NO release properties Emax (maximum vasorelaxing effect)
Procedure: The activity of the compounds was evaluated on isolated rings of thoracic aorta of normotensive male Wistar rats (250-350 g). After light anaesthesia with ether, the rats were sacrificed by cervical dislocation and exsanguination. The aortas were immediately excised, extraneous tissues were removed and the endothelial layer was removed by gently rubbing the surface with a hypodermic needle. Rings of aorta with a width of 5 mm were suspended, with a preload of 2 g, in 20-ml organ baths, containing a solution of “Tyrode” (composition of the saline solution in mM: NaCl 136.8; KCl 2.95; CaCl2 1.80; MgSO4 1.05; NaH2PO4 0.41; NaHCO3 11.9; glucose 5.5), thermostatically controlled at 37° C. and kept in an atmosphere of O2 (95%) and CO2 (5%). […] were recorded by means of an isometric transducer (FTO3 Erba), connected to a microdynamometer (Buxco Electronics).
60 minutes after preparation, removal of the endothelium was confirmed by acetylcholine (ACH) (10 μM) treatment of the vascular rings pre-contracted with KCl (20 mM). Relaxation of less than 10% of the contraction induced by KCl was considered as representative of acceptable removal of the endothelial layer, whereas organs displaying relaxation ≧10% were discarded. 40 minutes after confirmation of complete removal of the endothelium, the aortas were contracted by treatment with a single dose of KCl (20 mM) and after the contraction reached a stable plateau, increasing cumulative concentrations (with progressive increments of 3 times) of the test compounds (1 nM-10 μM) were added. It was found from preliminary experiments that the contraction induced by KCl (20 mM) remained stable in a tonic state for at least 40 minutes. The same experiments were performed in the presence of a well-known inhibitor of guanylate cyclase: ODQ 1 μM, which was incubated in aorta preparations after confirmation of removal of the endothelium.
Analysis of the results. The vasorelaxing activity was evaluated as a percentage (%) relative to the contractile tone induced by 20 mM KCl. The pharmacodynamic efficacy parameter (Emax) corresponds to the maximum vasorelaxing effect induced by the molecule tested, expressed as percentage relative to the contractile tone induced by 20 mM KCl. When the limit concentration of 10 μM (the highest concentration administered) of the test compounds has not reached the maximum effect, the efficacy parameter (Emax) corresponds to the vasorelaxing effect induced by the limit concentration (expressed as percentage relative to the contractile tone induced by 20 mM KCl). The pharmacodynamic parameter of potency of the compounds was expressed as pIC50 calculated as the negative logarithm of the molar concentration of test compound that reduces the contractile tone induced by 20 mM KCl by half. […] The parameters of efficacy and potency were expressed as mean±standard error, for 5-10 experiments. The experimental data were analysed by the program GraphPad Prism 3.0.

rat liver homogenate [4] = conditions: 1 mM
Excerpt: (§3) By evaluating the time-dependent increase in nitrite concentrations in the liver homogenate, it was possible to extrapolate two descriptive parameters:
(§4) Time (in minutes) required for an amount of nitrite to be released by the test compound equal to half its maximum release.

rat liver homogenate [5] = assay: Evaluation of release of nitrites in hepatic homogenate; conditions: for Maximum release (%): nitrite after 4 hours, 1 mM, 37° C., as percentage of SNP
Excerpt: as §3, §4

COX-2 = COX-2 (Mus musculus (Mouse), UniProt Q05769); assay: Evaluation of COX-2 activity: PGE2 production in LPS-stimulated J774 cells; assay type: cell-based, murine; conditions: J774 cells stimulated 24 hours with LPS 10 μg/mL; PGE2 by radio-immunological assay; read-out: Cyclooxygenase inhibition COX-2 IC50
Procedure: The murine monocyte/macrophage cell line J774 is grown in Dulbecco's modified Eagle's medium (DMEM), enriched with glutamine (2 mM), HEPES (25 mM), penicillin (100 u/mL), streptomycin (100 μg/mL), 10% of fetal bovine serum (FBS) and 1.2% of sodium pyruvate. […] Just before the experiments, the culture medium is replaced with fresh medium without FBS to avoid interference during the radio-immunological phase and the cells are stimulated as described below.
The supernatants are collected for evaluating, by means of radio-immunological assays, the amount of PGE2 produced.
In each group of experiments, wells were used in triplicate for the different treatment conditions. […] The data were evaluated using the sigmoidal dose-response equation (variable slope) (GraphPad software). IC50 and the 95% precision intervals were calculated with the program GraphPad Instat (GraphPad software).

[6] = system: mouse abdominal contraction (writhing) induced by acetic acid; assay: Abdominal constriction test induced by acetic acid; assay type: in vivo
Procedure: as §1
The antinociceptive activity was determined by the mouse abdominal contraction test using acetic acid (0.6%), which induces writhing, according to Koster's method (Fed. Proc., 1959, 18, 412-418). The number of stretching movements was counted for 10 minutes, starting 5 minutes after injection of acetic acid. The results relating to analgesic activity in the abdominal constriction test with representative compounds of the invention are shown in Table 10.
The test was carried out using 10 animals in the treated group and 20 in the control group (CMC); all the compounds were administered per os with the exception of the compound of Example 8, which was administered i.p.

[7] = system: MIA-induced osteoarthritis; assay: Chronic pain from MIA-induced osteoarthritis; assay type: in vivo, rat; conditions: 20 mg/kg per os twice daily for 14 days
Procedure: The compounds are administered per os at a dose of 20 mg/kg twice daily for 14 days. Monosodium iodoacetate (MIA), 2 mg in 25 μL is injected in the left knee of anaesthetized rats, the test is carried out according to the literature. Each experiment represents the mean value for 5 animals.

[8] = relative to contractile tone induced by 20 mM KCl, 1 nM-10 μM

COX-2, sequence (Q05769 18-604): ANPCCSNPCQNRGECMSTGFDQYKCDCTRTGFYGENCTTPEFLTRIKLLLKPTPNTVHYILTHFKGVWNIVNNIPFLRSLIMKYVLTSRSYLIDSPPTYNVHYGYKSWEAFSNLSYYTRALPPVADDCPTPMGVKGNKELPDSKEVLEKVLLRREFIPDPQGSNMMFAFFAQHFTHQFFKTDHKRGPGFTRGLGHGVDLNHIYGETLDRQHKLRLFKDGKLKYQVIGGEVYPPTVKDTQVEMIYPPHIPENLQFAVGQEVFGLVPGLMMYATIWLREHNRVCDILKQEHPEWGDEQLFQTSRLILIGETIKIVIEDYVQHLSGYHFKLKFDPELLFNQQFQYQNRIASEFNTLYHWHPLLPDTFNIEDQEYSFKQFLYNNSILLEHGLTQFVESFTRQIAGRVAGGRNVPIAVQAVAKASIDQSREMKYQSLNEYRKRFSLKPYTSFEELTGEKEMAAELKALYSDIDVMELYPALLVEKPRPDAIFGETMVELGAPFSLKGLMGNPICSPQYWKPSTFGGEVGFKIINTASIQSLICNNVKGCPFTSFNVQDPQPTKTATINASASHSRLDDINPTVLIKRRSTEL

| Structure (SMILES) | IC50 [3] [µM] | Emax [3, 8] [%] | T ½ (rat liver homogenate [4]) [min] | Maximum release (%) (rat liver homogenate [5]) | IC50 (COX-2) [nM] | N writhes ([6]; 40 mg/kg per os) | also measured |
| --- | --- | --- | --- | --- | --- | --- | --- |
| Cc1ccc(-c2cc(C(F)(F)F)nn2-c2ccc(S(N)(=O)=O)cc2)cc1 [Celecoxib, reference compound] |  |  |  |  |  |  | Weight supported (g) After treatment 30 min ([1]; 10 mg/kg per os): 52.9 ± 3.1 g; Weight supported (g) After treatment 60 min ([1]; 10 mg/kg per os): 48.3 ± 3.4 g; Weight supported (g) Before treatment ([1]; 10 mg/kg per os): 30.9 ± 2.6 g; Oedema Volume ([2]; 10 mg/kg per os): 1.91 ± 0.04 mL |
| Cc1c(CC(=O)OCCO[N+](=O)[O-])cc(-c2ccc(S(C)(=O)=O)cc2)n1-c1ccc(F)cc1 [Example 2, 2-(Nitrooxy)ethyl-2-[(1-(4-fluorophenyl)-2-methyl-5-(4-(methylsulphonyl)phenyl)-1H-pyrrol-3-yl)]acetate] | 3.47 | 58 ± 5 | 68.7 ± 12.5 | 26 ± 7 |  |  |  |
| Cc1c(CC(=O)OCCO[N+](=O)[O-])cc(-c2ccc(S(C)(=O)=O)cc2)n1-c1cccc(F)c1 [Example 3, 2-(Nitrooxy)ethyl-2-[(1-(3-fluorophenyl)-2-methyl-5-(4-methylsulphonylphenyl)-1H-pyrrol-3-yl)]acetate] | 0.331 | 69 ± 4 |  |  | 19 | 9.4 ± 2.5 | Weight supported (g) After treatment 30 min ([1]; 40 mg/kg per os): 54.1 ± 3.7 g; Weight supported (g) After treatment 60 min ([1]; 40 mg/kg per os): 38.7 ± 3.1 g; Weight supported (g) Before treatment ([1]; 40 mg/kg per os): 32.6 ± 2.7 g; Oedema Volume ([2]; 40 mg/kg per os): 2.17 ± 0.08 mL; N writhes ([6]; 20 mg/kg per os): 17.1 ± 2.3 |
| COc1ccc(-n2c(-c3ccc(S(C)(=O)=O)cc3)cc(CC(=O)OCCO[N+](=O)[O-])c2C)cc1 [Example 4, 2-(Nitrooxy)ethyl-[1-(4-methoxy-phenyl)-2-methyl-5-(4-methylsulphonylphenyl)-1H-pyrrol-3-yl]-acetate] | 0.178 | 77 ± 2 |  |  | 170 | 17.7 ± 2.3 | melting point: 122 °C |
| COc1ccc(-n2c(-c3ccc(S(C)(=O)=O)cc3)cc(CC(=O)OCCCO[N+](=O)[O-])c2C)cc1 [Example 9, 3-(Nitroxy)propyl-[1-(4-methoxyphenyl)-2-methyl-5-(4-methylsulphonylphenyl)-1H-pyrrol-3-yl]-acetate] |  | 41 ± 11 |  |  | 2 |  | melting point: 115 °C; N writhes ([6]; 20 mg/kg per os): 18.4 ± 3.1 |
| Cc1c(CC(=O)OCCCCO[N+](=O)[O-])cc(-c2ccc(S(C)(=O)=O)cc2)n1-c1cccc(F)c1 [Example 12, 4-(Nitrooxy)butyl-2-[1-(3-fluorophenyl)-2-methyl-5-(4-methylsulphonylphenyl)-1H-pyrrol-3-yl]acetate] | 3.98 | 57 ± 14 |  |  | 69 | 25.1 ± 2.3 | melting point: 114 °C |
| Cc1c(CCOCCO)cc(-c2ccc(S(C)(=O)=O)cc2)n1-c1ccc(F)cc1 [Example 37-II] |  |  |  |  |  | 18.2 ± 3.1 | Weight supported (g) After treatment 30 min [7]: 51.2 ± 3.9 g; Weight supported (g) After treatment 4 h [7]: 50.3 ± 3.8 g; Weight supported (g) After treatment 24 h [7]: 48.1 ± 3.3 g; Weight supported (g) After treatment 36 h [7]: 47.4 ± 3.3 g; Weight supported (g) Before treatment ([7]; baseline before treatment): 33.5 ± 2.6 g; Weight supported (g) After treatment 30 min ([1]; 20 mg/kg per os): 46.8 ± 3.7 g; Weight supported (g) After treatment 60 min ([1]; 20 mg/kg per os): 38.7 ± 3.3 g; Weight supported (g) Before treatment ([1]; 20 mg/kg per os): 32.5 ± 3.4 g; Oedema Volume ([2]; 20 mg/kg per os): 2.08 ± 0.07 mL |
| Cc1c(CCOCCO[N+](=O)[O-])cc(-c2ccc(S(C)(=O)=O)cc2)n1-c1cccc(F)c1 [Example 38, 2-[2-[2-(1-(3-Fluorophenyl)-2-methyl-5-(4-methylsulphonylphenyl)-1H-pyrrol-3-yl]ethoxy]ethyl Nitrate] | 4.79 | 60 ± 4 | 60.7 ± 8.7 | 28 ± 3 | 28 | 25.3 ± 3.6 |  |
| Cc1c(CCOCCO[N+](=O)[O-])cc(-c2ccc(S(C)(=O)=O)cc2)n1-c1ccc(F)c(F)c1 [Example 39, 2-[2-[2-(1-(3,4-Difluorophenyl)-2-methyl-5-(4-methylsulphonylphenyl)-1H-pyrrol-3-yl]ethoxy]ethyl Nitrate] |  | 43 ± 6 | 68.2 ± 8.5 | 30 ± 1 | 920 |  | N writhes ([6]; 20 mg/kg per os): 26.3 ± 3.4 |
| Cc1c(CCOCCCO[N+](=O)[O-])cc(-c2ccc(S(C)(=O)=O)cc2)n1-c1cccc(F)c1 [Example 42, 3-[2-(1-(3-Fluorophenyl)-2-methyl-5-(4-methylsulphonylphenyl)-1H-pyrrol-3-yl)ethoxy]propyl Nitrate] |  |  | 84.4 ± 11.9 | 52 ± 8 | 430 |  | NO release properties Emax (maximum vasorelaxing effect) [3, 8]: S.E. |
| COc1ccc2cc([C@H](C)C(=O)OCCCCO[N+](=O)[O-])ccc2c1 [Naproxcinod, naproxcinod, reference compound] | 5.25 | 62 ± 4 | 8.6 ± 2.9 | 20 ± 1 |  |  | Weight supported (g) After treatment 30 min ([1]; 10 mg/kg per os): 47.9 ± 3.5 g; Weight supported (g) After treatment 60 min ([1]; 10 mg/kg per os): 46.2 ± 3.8 g; Weight supported (g) Before treatment ([1]; 10 mg/kg per os): 33.5 ± 3.7 g; Weight supported (g) After treatment 30 min ([1]; 30 mg/kg per os): 48.2 ± 2.8 g; Weight supported (g) After treatment 60 min ([1]; 30 mg/kg per os): 43.9 ± 3.7 g; Weight supported (g) Before treatment ([1]; 30 mg/kg per os): 32.7 ± 3.8 g; Oedema Volume ([2]; 10 mg/kg per os): 1.95 ± 0.07 mL; Oedema Volume ([2]; 30 mg/kg per os): 1.88 ± 0.07 mL; course of nitrite release (rat liver homogenate [5]; incubation in rat liver homogenate): very rapid, slight release of nitrites |
| O=C(NCCO[N+](=O)[O-])c1cccnc1 [Nicorandil, reference compound] |  |  |  | 18 ± 2 |  |  |  |
